Results published in BindingDB's records for doi:10.1016/j.jmb.2004.09.032 (Celera, 2004).
“And” between values parts separate entries of the source, which are not always exact repeats. Equal entries are not always repeated.

How the values were obtained:
Assay in all cases: Enzyme Assay and Determination of the Inhibition Constants
[1] = target: Plasminogen (Homo sapiens, UniProt P00747); conditions: pH 7.4; 22 °C
Description: (§1) Each enzyme was assayed with a set of different concentrations of each inhibitor. […] Ki(apparent) values were calculated from enzyme velocity curves using the software package BatchKi (BioKin Ltd, Madison, WI). These apparent inhibition constants were then converted to Ki values by assuming competitive inhibition and using the formula Ki = Ki(apparent)/(1 + S/Km).

[2] = target: Coagulation factor X (Homo sapiens, UniProt P00742)
Description: as §1

[3] = target: Tissue-type plasminogen activator (Homo sapiens, UniProt P00750)
Description: as §1

[4] = target: Serine protease 1 (Homo sapiens, UniProt P07477); conditions: pH 7.4; 22 °C
Description: as §1

[5] = target: Prothrombin (Homo sapiens, UniProt P00734)
Description: as §1

[6] = target: Serine protease hepsin (Homo sapiens, UniProt P05981)
Description: as §1

[7] = target: Urokinase-type plasminogen activator (Homo sapiens, UniProt P00749)
Description: as §1

[8] = target: T1, Urokinase-type plasminogen activator [179-431,I214M,N322A,S371A] (Homo sapiens, UniProt P00749, I214M/N322A/S371A)
T1 construct: 179-431
Description: as §1

[9] = target: Tryptase beta-2 (Homo sapiens, UniProt P20231)
Chain of Tryptase beta-2 (P20231 as listed by the source): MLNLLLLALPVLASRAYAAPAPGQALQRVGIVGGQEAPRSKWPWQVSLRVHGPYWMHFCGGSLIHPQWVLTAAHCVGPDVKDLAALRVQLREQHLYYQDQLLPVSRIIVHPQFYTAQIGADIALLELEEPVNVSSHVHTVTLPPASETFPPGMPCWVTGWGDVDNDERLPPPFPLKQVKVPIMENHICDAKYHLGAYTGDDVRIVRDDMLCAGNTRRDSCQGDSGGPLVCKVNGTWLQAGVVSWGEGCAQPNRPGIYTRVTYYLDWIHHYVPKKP
Description: as §1

Chain of Tissue-type plasminogen activator (P00750 whole entry): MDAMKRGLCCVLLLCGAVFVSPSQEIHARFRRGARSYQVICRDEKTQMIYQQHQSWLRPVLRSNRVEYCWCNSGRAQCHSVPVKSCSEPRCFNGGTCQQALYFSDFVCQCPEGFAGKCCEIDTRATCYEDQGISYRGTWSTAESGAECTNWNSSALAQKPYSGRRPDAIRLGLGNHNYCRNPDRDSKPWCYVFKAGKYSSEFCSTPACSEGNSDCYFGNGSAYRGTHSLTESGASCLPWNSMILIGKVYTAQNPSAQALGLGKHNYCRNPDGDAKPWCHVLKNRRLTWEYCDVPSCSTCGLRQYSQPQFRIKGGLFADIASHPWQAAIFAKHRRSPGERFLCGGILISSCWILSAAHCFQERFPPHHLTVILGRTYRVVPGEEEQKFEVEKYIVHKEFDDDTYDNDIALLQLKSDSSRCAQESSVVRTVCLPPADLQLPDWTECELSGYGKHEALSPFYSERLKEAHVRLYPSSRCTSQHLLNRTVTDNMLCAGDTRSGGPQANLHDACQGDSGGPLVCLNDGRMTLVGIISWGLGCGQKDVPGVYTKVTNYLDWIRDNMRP
Chain of Coagulation factor X (P00742 41-179 limits assumed): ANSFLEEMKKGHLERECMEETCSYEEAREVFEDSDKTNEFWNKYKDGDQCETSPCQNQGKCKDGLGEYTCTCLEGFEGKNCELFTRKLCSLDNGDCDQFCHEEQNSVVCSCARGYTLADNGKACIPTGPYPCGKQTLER
Chain of Coagulation factor X (P00742 235-488 limits assumed): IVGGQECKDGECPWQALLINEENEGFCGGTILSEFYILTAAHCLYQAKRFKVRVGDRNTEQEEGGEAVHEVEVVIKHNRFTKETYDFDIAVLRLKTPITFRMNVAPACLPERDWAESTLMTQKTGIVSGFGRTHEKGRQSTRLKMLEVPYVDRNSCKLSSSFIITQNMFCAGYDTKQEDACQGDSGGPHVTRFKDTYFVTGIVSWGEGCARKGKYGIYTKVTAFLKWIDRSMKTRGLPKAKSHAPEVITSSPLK
Chain of Serine protease hepsin (P05981 1-162 limits assumed): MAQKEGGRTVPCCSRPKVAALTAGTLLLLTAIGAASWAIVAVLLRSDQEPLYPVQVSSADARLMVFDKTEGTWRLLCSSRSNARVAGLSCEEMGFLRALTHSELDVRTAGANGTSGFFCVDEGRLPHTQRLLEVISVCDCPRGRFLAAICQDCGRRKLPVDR
Chain of Serine protease hepsin (P05981 163-417 limits assumed): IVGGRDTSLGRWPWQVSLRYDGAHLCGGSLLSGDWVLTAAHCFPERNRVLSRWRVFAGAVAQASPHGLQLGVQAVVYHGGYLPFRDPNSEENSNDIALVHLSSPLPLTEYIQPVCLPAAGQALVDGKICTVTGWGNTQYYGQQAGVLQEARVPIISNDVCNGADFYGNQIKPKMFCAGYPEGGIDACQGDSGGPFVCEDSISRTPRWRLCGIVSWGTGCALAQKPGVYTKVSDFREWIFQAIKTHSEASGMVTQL
Chain of Serine protease 1 (P07477 whole entry): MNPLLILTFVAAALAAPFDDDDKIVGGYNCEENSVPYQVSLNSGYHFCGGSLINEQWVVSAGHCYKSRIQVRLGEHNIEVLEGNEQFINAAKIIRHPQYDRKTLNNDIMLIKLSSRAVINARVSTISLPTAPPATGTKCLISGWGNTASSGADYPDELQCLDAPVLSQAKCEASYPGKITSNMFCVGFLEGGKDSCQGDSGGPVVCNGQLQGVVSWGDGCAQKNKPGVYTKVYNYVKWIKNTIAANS
Chain of Plasminogen (P00747 97-580 limits assumed): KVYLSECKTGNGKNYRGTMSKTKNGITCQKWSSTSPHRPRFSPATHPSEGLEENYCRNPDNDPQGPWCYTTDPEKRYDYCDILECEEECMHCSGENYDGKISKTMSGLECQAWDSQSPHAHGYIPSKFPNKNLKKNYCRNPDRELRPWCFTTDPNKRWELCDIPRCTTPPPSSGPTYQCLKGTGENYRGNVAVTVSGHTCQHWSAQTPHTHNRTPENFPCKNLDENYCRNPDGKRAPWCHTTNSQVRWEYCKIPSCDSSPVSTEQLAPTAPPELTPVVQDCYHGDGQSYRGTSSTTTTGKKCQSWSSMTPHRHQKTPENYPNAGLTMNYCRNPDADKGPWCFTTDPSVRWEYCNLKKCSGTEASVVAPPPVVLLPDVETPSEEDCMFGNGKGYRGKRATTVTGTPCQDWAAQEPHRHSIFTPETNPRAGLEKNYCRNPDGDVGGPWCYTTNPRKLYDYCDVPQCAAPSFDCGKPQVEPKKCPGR
Chain of Plasminogen (P00747 581-810 limits assumed): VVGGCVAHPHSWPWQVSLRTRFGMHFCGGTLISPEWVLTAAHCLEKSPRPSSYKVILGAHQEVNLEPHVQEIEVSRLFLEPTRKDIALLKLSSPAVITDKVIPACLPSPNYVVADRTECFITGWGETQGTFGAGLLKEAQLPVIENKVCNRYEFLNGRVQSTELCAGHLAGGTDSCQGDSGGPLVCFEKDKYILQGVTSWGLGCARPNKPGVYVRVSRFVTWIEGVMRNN

Structure (SMILES) | Ki [1] | Ki [2] | Ki [3] | Ki [4] | Ki [5] | Ki [6] | Ki [7] | Ki [8] | Ki [9]
Nc1nc2cc(NC(=O)c3cccc(-c4ccccc4)c3O)ccc2[nH]1 [2-amino-5-[(2-hydroxy-3-phenylbenzene)amido]-1H-1,3-benzodiazol-3-ium] | > 75 µM | > 450 µM | 270 µM | 130 µM | > 450 µM | > 75 µM | 4.1 µM | – | –
Nc1nc2cc(NC(=O)c3cc4ccccc4cc3O)ccc2[nH]1 [2-amino-5-[(3-hydroxynaphthalene-2-)amido]-1H-1,3-benzodiazol-3-ium] | > 75 µM | 200 µM | > 450 µM | 37 µM | > 450 µM | 2.1 µM | 4.6 µM and 4.5 µM | 42 µM | –
CC(C)COc1cccc(-c2nc3ccc(C(=N)N)cc3[nH]2)c1O [2-{5-[amino(iminiumyl)methyl]-1H-1,3-benzodiazol-2-yl}-6-(2-methylpropoxy)benzen-1-olate] | – | – | – | – | – | – | 0.19 µM | 3.9 µM | –
N=C(N)c1cc2nc(-c3cccc(-c4ccccc4)c3O)[nH]c2cc1F [2-{5-[amino(iminiumyl)methyl]-6-fluoro-1H-1,3-benzodiazol-2-yl}-6-phenylbenzen-1-olate] | – | – | – | 10 µM | – | – | 0.37 µM | 39 µM | 4.7 µM
C[C@H]1CCCC[C@@H]1Oc1cccc(-c2nc3cc(C(=N)N)c(F)cc3[nH]2)c1O [2-{5-[amino(iminiumyl)methyl]-6-fluoro-1H-1,3-benzodiazol-2-yl}-6-{[(1S,2S)-2-methylcyclohexyl]oxy}benzen-1-olate] | – | – | – | – | – | – | – | – | 2.5 µM
N=C(N)c1ccc2nc(-c3cccc(OC4CCCC4)c3O)[nH]c2c1 [CA-06] | – | – | – | – | – | – | 0.19 µM | 4.4 µM | –
CC(C)COc1cccc(-c2nc3cc(F)c(C(=N)N)cc3[nH]2)c1O [CA-10] | – | – | – | – | – | – | 0.15 µM | 23 µM | –
N=C(N)c1ccc2[nH]c(-c3cccc(-c4ccccc4)c3O)cc2c1 [CRA-8696] | – | – | – | – | – | 0.085 µM | 0.033 µM | – | –
NC(N)=Nc1ccc(NC(=O)c2cc3ccccc3cc2O)cc1 [[amino({4-[(3-hydroxynaphthalene-2-)amido]phenyl}amino)methylidene]azanium] | 130 µM | > 450 µM | 670 µM | 16 µM | 290 µM | 2.6 µM | 0.62 µM and 0.39 µM | 10 µM | 2 µM
NC(N)=Nc1ccc(NC(=O)c2cc3ccccc3c(O)c2O)cn1 [[amino({5-[(3,4-dihydroxynaphthalene-2-)amido]pyridin-2-yl}amino)methylidene]azanium] | 4 µM | 80 µM | – | 42 µM | > 450 µM | – | 0.017 µM and 0.041 µM | 0.28 µM | –
N=C(N)Nc1ccc(NC(=O)c2cc3ccccc3cc2O)cn1 [[amino({5-[(3-hydroxynaphthalene-2-)amido]pyridin-2-yl}amino)methylidene]azanium] | 130 µM | 70 µM | 180 µM | 9.6 µM | 54 µM | – | 0.1 µM and 0.2 µM | 1.1 µM | 0.87 µM
